Laboratory results reported in patent US20250049819A1, “METHODS FOR TREATING AND PREVENTING C. DIFFICILE INFECTION” (Paratek Pharmaceuticals, Inc., priority 2016, published 2025).
Values after ≈ are worked out from the molar mass of the structure shown.

Tests used:
[1] = tested on: C. difficile strain ATCC 43596; assay: Hamster model of C. difficile-associated diarrhea, survival; type: in vivo
[2] = tested on: gut microflora populations; assay: In vitro human gut model, gut microflora populations (Example 3); type: cell-based
Description: An in vitro gut model was used to study the effects of omadacycline instillation on both normal microflora populations and C. difficile. This gut model has been validated against gut contents from sudden death victims and provides a very close simulation of bacterial activities and composition in different areas of the hindgut (Macfarlane et al., Microb. Ecol. 35, 180-7, 1998). The model consists of three vessels aligned in series, and top-fed with a complex growth medium. All three vessels are continuously stirred, anaerobically maintained at 37° C. and regulated to reflect in vivo differences, including pH, from proximal to distal colon. The three anaerobic fermentation vessels are maintained at increasing alkalinity (from pH 5.5±0.2 for vessel 1; pH 6.2±0.2 for vessel 2; and pH 6.8±0.2 for vessel 3). The increasing alkalinity in combination with the nutrient limited conditions are designed to simulate the human gut from the proximal to the distal colon. Inoculation with pooled human feces (from healthy elderly volunteers) is followed by a period of equilibration, during which bacterial populations respond to their environmental conditions and reach a steady state. At this stage, dietary ingredients, prebiotics, pathogens and/or antibiotics may be added, and the bacterial populations monitored. Specific components of the gut flora and relevant pathogens may be closely monitored and their behavior analyzed.
(§1) The gut model was inoculated with pooled fecal slurry (5 volunteers ≥60 years of age with no history of antibiotic therapy in the previous 3 months) and left for 2 weeks to allow the bacterial populations to achieve steady state. A single inoculum (˜10^7 cfu/mL) of C. difficile spores (PCR ribotype 027 strain 210) was added into vessel 1 of the gut model on day 14. One week later, on day 21, a second aliquot of C. difficile spores was added, and antibiotic instillation commenced. Omadacycline instillation (430 mg/L, once daily, for 7 days) commenced on day 21.
Gut microbiota bacterial populations and C. difficile total viable counts and spore counts were enumerated daily by culture on selective and non-selective agars. C. difficile populations were monitored in all three vessels, and all other bacterial groups (total obligate anaerobes, total facultative anaerobes, lactose fermenting enterobacteriaceae, enterococci, total clostridia, lactobacilli, bifidobacteria, B. fragilis group) were monitored in vessels 2 and 3 only. Vessel 3 is of most physiological relevance in terms of propensity to induce CDI. C. difficile total viable counts and spores counts were monitored using viable counting and a differential alcohol shock viable count on selective agars.

[3] = tested on: C. difficile strains (N = 27); assay: MIC by broth microdilution against C. difficile clinical isolates; type: cell-based; details: Clostridioides difficile, 27 isolates
Method: (§2) The activity of omadacycline was tested in vitro against 27 clinical isolates of C. difficile. […] The experiments were carried out using broth and agar microdilution methods according to Clinical and Laboratory Standards Institute (CLSI) guidelines. […] Each test was run in duplicate.

[4] = tested on: C. difficile strains (N = 27); assay: MIC by agar dilution against C. difficile clinical isolates; type: cell-based; details: Clostridioides difficile, 27 isolates
Method: as §2

[5] = tested on: gut microflora populations; assay: In vitro human gut model, gut microflora populations (Example 4); type: cell-based
Method: as §1, with “Model A (LHS) was exposed to moxifloxacin (43 mg/L, once daily, for 7 days) and Model B (RHS) was exposed to omadacycline” for “Omadacycline instillation”
(§3) Bacterial populations in the gut model were monitored using selective agars to count viable bacterial colonies. Populations were monitored every other day for the first 2 weeks until the steady state was reached, and daily thereafter. C. difficile populations were monitored in all three vessels, and all other bacterial groups (total obligate anaerobes, total facultative anaerobes, lactose fermenting Enterobacteriaceae, Enterococci, total Clostridia, Lactobacilli, Bifidobacteria and B. fragilis group) were monitored in vessels 2 and 3 only. Vessel 3, which represents the distal colon, is of most physiological relevance in terms of propensity to induce CDI. C. difficile total viable counts and spores counts were monitored using viable counting and a differential alcohol shock viable count on selective agars. From day 14 onwards C. difficile cytotoxin was measured using a quantitative VERO cell cytotoxicity assay. Samples of 1 mL each were centrifuged at 16,000×g for 15 minutes, and the supernatants were removed. Six 1:10 serial dilutions (to 10^−6) of culture supernatants from the gut model were prepared. Twenty microliters of the appropriate dilution was added to VERO cell monolayers and a further 20 μL of C. sordellii antitoxin (diluted 1:10 in sterile distilled water) was placed in the corresponding antitoxin row. Monolayers were examined after 24 and 48 hours of incubation in 5% CO2, with a positive result indicated by the presence of cell rounding with concurrent neutralization of the effect by C. sordellii antitoxin. Cytotoxin titers (relative units, RU) were an arbitrary log10 scale, and the cytotoxin titer is reported in the highest dilution with >70% cell rounding, i.e. 10^0=1 RU, 10^−1=2 RU, 10^−2=3 RU. Samples were taken daily from day 21 onwards to determine antimicrobial concentrations in the gut model vessels by a bioassay. Concentrations of moxifloxacin were determined using Isosensitest agar with Escherichia coli as the indicator organism. Concentrations of omadacyline were determined using Wilkins Chalgren agar with Kocuria rhizophila as the indicator organism.

[6] = tested on: C. difficile PCR ribotype 027 strain 210; assay: In vitro human gut model, C. difficile germination, proliferation and toxin production (Example 4); type: cell-based
Method: as §1, with “Model A (LHS) was exposed to moxifloxacin (43 mg/L, once daily, for 7 days) and Model B (RHS) was exposed to omadacycline” for “Omadacycline instillation”
as §3

[7] = Elimination of an oral dose via the biliary/fecal pathway; type: in vivo
[8] = oral 50 mg/kg/day for 5 days, N=10
[9] = vessels 2 and 3, 430 mg/L once daily for 7 days
[10] = vessels 2 and 3, 430 mg/L once daily for 7 days, fell below limit of detection
[11] = vessels 2 and 3, once daily for 7 days

CN(C)c1cc(CNCC(C)(C)C)c(O)c2c1C[C@H]1C[C@H]3[C@H](N(C)C)C(O)=C(C(N)=O)C(=O)[C@@]3(O)C(O)=C1C2=O (stereo in doubt) [Omadacycline]
percent survival at day 2 post infection ([1]; oral 50 mg/kg/day for 5 days (clindamycin: 10 mg/kg SC pre-treatment only), N=10): 100% | Median Survival ([1]; oral 50 mg/kg/day for 5 days (clindamycin: pre-treatment only), followed up to 21 days): 12 days | percent survival by day 3 [1, 8]: 60% | percent survival on day 13 [1, 8]: 40% | percent survival on day 16 [1, 8]: 0% | time for all populations to return to steady state levels post antimicrobial exposure ([2]; after end of dosing): approximately 1 week | Enterobacteriacea populations [2, 9]: remained undisturbed | decrease in B. fragilis group [2, 9]: ~3 log10 cfu/mL | decrease in Enterococcus spp. [2, 9]: ~4 log10 cfu/mL | decrease in Lactobacillus spp. [2, 9]: ~2 log10 cfu/mL | decline in Bifidobacteria population [2, 10]: ~6 log10 cfu/mL | decline in Clostridia population [2, 10]: ~6 log10 cfu/mL | MIC90 ([3]; read-out: MIC90 by broth dilution): 0.06 µg/mL (≈ 0.108 µM) | MIC50 ([3]; Wilkins-Chalgren broth, 48 hours anaerobic): 60 µg/mL (≈ 108 µM) | MIC90 ([3]; Wilkins-Chalgren broth, 48 hours anaerobic, read-out: Broth Microdilution MIC90): 60 µg/mL (≈ 108 µM) | MIC90 [4]: 0.12 µg/mL (≈ 0.216 µM) | recovery of populations after end of dosing ([5]; all populations): returned to pre-antibiotic exposure levels by the end of the experiment | Enterobacteriaceae populations ([5]; particularly in vessel 2): increased during omadacycline exposure | decline in B. fragilis group [5, 11]: ~8 log10 cfu/mL | decline in Bifidobacteria [5, 11]: ~8 log10 cfu/mL | decline in Enterococcus spp. / Enterococci populations [5, 11]: ~6 log10 cfu/mL | decline in Lactobacilli [5, 11]: ~6 log10 cfu/mL | decrease in Clostridia [5, 11]: ~5 log10 cfu/mL | decrease in lactose fermenting Enterobacteriaceae [5, 11]: ~5 log10 cfu/mL | overall decline in total anaerobe populations [5, 11]: ~5 log10 cfu/mL | total facultative anaerobes [5, 11]: remained fairly stable throughout | C. difficile spore germination / vegetative cell proliferation ([6]; all three vessels): no vegetative cell proliferation observed | C. difficile toxin detection (VERO cell cytotoxicity assay) ([6]; all vessels): No toxin was detected | signs of simulated CDI ([6]; once daily for 7 days, omadacycline 430 mg/L, moxifloxacin 43 mg/L): did not lead to any signs of simulated CDI | proportion of the absorbed omadacycline eliminated in the gut (biliary/fecal elimination pathway) [7]: approximately 60%
